Data on 17 compounds can be found in US8507528B2, “2-alkyl-indazole compounds for the treatment of certain cns-related disorders” (Aziende Chimiche Riunite Angelini Francesco A.C.R.A.F. …, priority 2006, dated 2013).

The target of series [1] is T1, human serotonin 5-HT2A receptor (Homo sapiens, UniProt P28223).
T1 construct: expressed in transfected cells
Briefly: Test B: binding to the human serotonin 5-HT2A receptor. The following applies: human recombinant cells, six concentrations; read-out: (h)5-HT2a (pKi) (converted). From the text:
(§1) These tests measured the percentage inhibition induced by the compounds of formula (I) according to the present invention at six different concentrations, from which the pKi values of the compounds in relation to the individual receptors were obtained.
Binding to the human serotonin 5-HT2A receptor was effected by the standard methodology described in Bonhaus D. W., Bach C., De Souza A., Salazar F. H., Matsuoka B. D., Zuppan P., Chan H. W., Eglen R. M. (1995) “The pharmacology and distribution of human 5-hydroxytryptamine2B (5-HT2B) receptor gene products: comparison with 5-HT2A and 5-HT2C receptors.” Br. J. Pharmacol. 115(4): 622-628; and Saucier C., Albert P. R. (1997) “Identification of an endogenous 5-hydroxytryptamine2A receptor in NIH-3T3 cells: agonist-induced down-regulation involves decreases in receptor RNA and number.” J. Neurochem. 68(5): 1998-2011. The test compounds were tested in duplicate at a single concentration of 1 μM and then at six concentrations to find the pKi values of the individual compounds.

Series [2] addresses T2, rat 5-HT2A serotonin receptor (Rattus norvegicus, UniProt P14842). The series can be described thus: biochemical.
Procedure: (§2) The non-specific binding was measured in the presence of 10 μM methysergide. The assay was conducted in Tris-HCl 50 mM buffer (pH 7.4 at 37° C.), with incubation for 2 hours at 37° C. The test compounds were dissolved in DMSO, then diluted in buffer (final DMSO concentration 0.01%) and plated on 96-well plates. Methysergide and/or ketanserin were used as reference compounds.
(§3) Binding is initiated by addition of 200 μl of homogenate (450 μg/ml protein content); after incubation, the membranes were filtered on glass-fibre filters (GF/B) (Unifilter, Packard) treated with 0.3% polyethyleneimine. Then the filters were washed with buffer solution and stove-dried for 30 minutes at 45° C. The scintillation liquid was added to each well, and 10 hours later the radioactivity was measured for 1 minute using a TopCount (Packard). The test compounds were tested in duplicate at 8 concentrations (from 10^-12 to 10^-5 M).
(§4) The IC50 values for each compound were calculated using non-linear regression analysis (GraphPad PRISM software) and the inhibition constants Ki were determined using the equation described by Cheng Y. and Prussof W. H. (1973) “Relationship between the inhibition constant (Ki) and the concentration of inhibitor which causes 50 percent inhibition (150) of an enzyme reaction.” Biochem. Pharmacol. 22: 3099-3108.
Series [3] deals with T3, serotonin 5-HT2C receptor (Homo sapiens, UniProt P28335).
T3 construct: expressed in transfected cells; host or cells: CHO-K1
T3 sequence (P28335 33-458): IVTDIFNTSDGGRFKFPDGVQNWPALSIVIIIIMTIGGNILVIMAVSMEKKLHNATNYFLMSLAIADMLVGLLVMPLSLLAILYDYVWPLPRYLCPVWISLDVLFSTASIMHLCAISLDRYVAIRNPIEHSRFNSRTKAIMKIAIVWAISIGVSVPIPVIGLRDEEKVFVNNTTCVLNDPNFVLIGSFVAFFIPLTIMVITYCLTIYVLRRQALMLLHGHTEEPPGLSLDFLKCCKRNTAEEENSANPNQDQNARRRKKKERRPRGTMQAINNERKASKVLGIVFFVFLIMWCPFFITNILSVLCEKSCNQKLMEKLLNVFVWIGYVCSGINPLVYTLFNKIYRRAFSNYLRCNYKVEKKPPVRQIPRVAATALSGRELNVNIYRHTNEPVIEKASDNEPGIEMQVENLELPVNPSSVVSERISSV
Briefly: Test B: binding to the serotonin 5-HT2C receptor. The conditions noted are these: human recombinant cells (CHO-K1), six concentrations; read-out: (h)5-HT2c (pKi) (converted).
Source text: as §1
Binding to the serotonin 5-HT2C receptor was effected using the standard methodology described in: Wolf W. A. and Schutz J. S. (1997) “The serotonin 5-HT2C receptor is a prominent serotonin receptor in basal ganglia: evidence from functional studies on serotonin-mediated phosphoinositide hydrolysis.” J. Neurochem. 69: 1449-1458. CHO-K1 recombinant cells for expression of the human enzyme were used as starting material, and SB242084 as reference compound. The test compounds were tested in duplicate at a single concentration of 1 μM and then at six concentrations to find the pKi values of the individual compounds.

In series [4] the target is T2, rat 5-HT2A serotonin receptor.
Procedure: as §2, §3, §4

Where a name gives a salt, the structure may show the parent alone. Read-outs that look alike come from different tables or passages of the source.

T1 sequence (P28223 whole entry): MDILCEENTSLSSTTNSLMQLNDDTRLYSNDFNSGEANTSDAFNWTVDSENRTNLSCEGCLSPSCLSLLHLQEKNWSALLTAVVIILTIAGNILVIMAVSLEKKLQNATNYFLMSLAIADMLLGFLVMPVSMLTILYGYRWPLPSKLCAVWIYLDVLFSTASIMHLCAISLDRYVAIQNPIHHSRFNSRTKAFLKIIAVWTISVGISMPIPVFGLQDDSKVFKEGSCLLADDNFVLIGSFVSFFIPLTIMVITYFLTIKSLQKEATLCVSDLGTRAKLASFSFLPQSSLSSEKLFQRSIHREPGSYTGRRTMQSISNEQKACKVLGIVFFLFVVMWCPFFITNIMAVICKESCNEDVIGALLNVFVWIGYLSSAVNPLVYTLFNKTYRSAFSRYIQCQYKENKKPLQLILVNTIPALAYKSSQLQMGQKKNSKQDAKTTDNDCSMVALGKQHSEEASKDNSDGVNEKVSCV
T2 sequence (P14842 whole entry): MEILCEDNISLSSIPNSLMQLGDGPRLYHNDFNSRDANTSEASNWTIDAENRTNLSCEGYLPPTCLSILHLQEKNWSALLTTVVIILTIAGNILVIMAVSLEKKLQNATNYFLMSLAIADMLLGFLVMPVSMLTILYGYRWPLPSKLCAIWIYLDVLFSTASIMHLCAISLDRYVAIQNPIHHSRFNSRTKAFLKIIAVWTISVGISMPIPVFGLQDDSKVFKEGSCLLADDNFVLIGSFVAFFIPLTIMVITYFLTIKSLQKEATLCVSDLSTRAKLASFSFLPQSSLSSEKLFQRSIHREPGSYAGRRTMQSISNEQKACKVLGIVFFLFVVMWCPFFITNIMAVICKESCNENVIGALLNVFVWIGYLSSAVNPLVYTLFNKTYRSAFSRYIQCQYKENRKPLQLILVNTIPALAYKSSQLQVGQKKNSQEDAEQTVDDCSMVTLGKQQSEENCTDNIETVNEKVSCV

For orientation: melting point means the temperature, or range, at which the solid turns liquid. The compound `Cn1nc2ccccc2c1C(=O)NCC1CCN(CCc2ccc(C(F)(F)F)cc2)CC1` [Compound 17, 2-methyl-N-[(1-{2-[4-(trifluoromethyl)phenyl]ethyl}piperidin-4-yl)methyl]-2H-indazole-3-carboxamide] returned a melting point of 174 to 176 °C.
Turning to `Cn1nc2ccccc2c1C(=O)NCC1CCN(CCc2ccc(O)cc2)CC1` [Compound 3, N3-({1-[2-(4-Hydroxyphenyl)ethyl]hexahydro-4-pyridinyl}methyl-2-methyl-2H-3-indazolecarboxamide hydrochloride hydrate], the Ki was 2.09 nM in series [1], 47.9 nM in series [2] and 148 nM in series [3].
Turning to `Cn1nc2ccccc2c1C(=O)NCC1CCN(CCc2ccccc2)CC1` [Compound 1, 2-Methyl-N-{[1-(2-phenylethyl)piperidin-4-yl]methyl}-2H-indazole-3-carboxamide hydrochloride hydrate], the Ki in series [1] was 2.63 nM; in series [2], 32.4 nM; in series [3], 89.1 nM.
Regarding `COc1ccc2nn(C)c(C(=O)NCC3CCN(CCc4ccc(O)cc4)CC3)c2c1` [Compound 4, N-({1-[2-(4-Hydroxyphenyl)ethyl]piperidin-4-yl}methyl)-5-methoxy-2-methyl-2H-indazole-3-carboxamide], the melting point is 218 to 219 °C (dec.). The compound further showed a Ki in series [2] of 47.9 nM.
On to `Cn1nc2ccccc2c1C(=O)N1CCC(CNCCc2ccc(F)cc2F)CC1` [Compound 9, 2-(2,4-Difluorophenyl)-N-({1-[(2-methyl-2H-indazole-3-yl)carbonyl]piperidin-4-yl}methyl)ethanamine hydrochloride], for which, in series [2], the Ki is 631 nM.
In series [4], “N,2-Dimethyl-N-{[1-(2-phenylethyl)piperidin-4-yl]methyl}-2H-indazole-3-carboxamide hydrochloride hemihydrate [Compound 2]” had a Ki of 813 nM.
`COc1ccc(CCN2CCC(CNC(=O)c3c4ccccc4nn3C)CC2)cc1.Cl` [Compound 5, N-({1-[2-(4-Methoxyphenyl)ethyl]piperidin-4-yl}methyl)-2-methyl-2H-indazole-3-carboxamide hydrochloride]: the melting point is 80 °C (dec.). Moreover, the Ki in series [2] is 1580 nM.
The compound `Cn1nc2ccccc2c1C(=O)NCC1CCN(CCc2ccc(F)cc2F)CC1` [Compound 23, N-({1-[2-(2,4-difluorophenyl)ethyl]piperidin-4-yl}methyl)-2-methyl-2H-indazole-3-carboxamide] returned a melting point of 122 to 126 °C.
In turn, `Cn1nc2ccccc2c1C(=O)NC1CCN(CCc2ccc(F)cc2)C1` (stereo not shown) [Compound 15, N-{1-[2-(4-fluorophenyl)ethyl]pyrrolidin-3-yl}-2-methyl-2H-indazole-3-carboxamide] gave a melting point of 117 to 119 °C.
`Cn1nc2ccccc2c1C(=O)NC1CCN(CCCc2ccc(F)cc2)CC1` [Compound 22, N-{1-[3-(4-fluorophenyl)propyl]piperidin-4-yl}-2-methyl-2H-indazole-3-carboxamide] showed a melting point of 162 to 165 °C.
For `COCCn1nc2ccccc2c1C(=O)NCC1CCN(CCc2ccc(F)cc2)CC1.Cl` [Compound 7, N-({1-[2-(4-Fluorophenyl)ethyl]piperidin-4-yl}methyl)-2-(2-methoxyethyl)-2H-indazole-3-carboxamide hydrochloride], the melting point was in the range of 193 to 194 °C. Further, the Ki in series [2] was 91.2 nM.
Compound `Cn1nc2ccccc2c1C(=O)NCCCN1CCC(c2ccc(F)cc2)CC1` [Compound 20, N-{3-[4-(4-fluorophenyl)piperidin-1-yl]propyl}-2-methyl-2H-indazole-3-carboxamide] had a melting point of 136 to 140 °C.
For the compound `Cl.Cn1nc2ccccc2c1C(=O)N1CCC(CNCCc2ccc(F)cc2)CC1` [Compound 10, 2-(4-Fluorophenyl)-N-({1-[(2-methyl-2H-indazol-3-yl)carbonyl)piperidin-4-yl}methyl]ethanamine hydrochloride], the melting point is 198 to 199 °C. This compound also gave a Ki in series [2] of 263 nM.
With `Cn1nc2ccccc2c1C(=O)NC1CCN(CCc2ccccc2F)CC1` [Compound 18, N-{1-[2-(2-fluorophenyl)ethyl)piperidin-4-yl}-2-methyl-2H-indazole-3-carboxamide], the melting point was in the range of 164 to 166 °C.
Same read-out and setting: to `Cl.Cn1nc2ccccc2c1C(=O)NC1CCN(CCc2ccc(F)cc2)CC1` belongs 224 to 228 °C.
Consider `Cl.Cn1nc2ccccc2c1C(=O)NCC1CCN(CCc2ccc(F)cc2)CC1` [Compound 8, N-({1-[2-(4-Fluorophenyl)ethyl]piperidin-4-yl}methyl)-2-methyl-2H-indazole-3-carboxamide hydrochloride], for which the melting point is 208 to 209 °C. Also, the Ki in series [1] is 1.62 nM. Also, the Ki in series [2] is 15.8 nM. In series [3], the Ki was 53.7 nM.
Compound `Cn1nc2ccccc2c1C(=O)NC1CCN(Cc2ccccc2)CC1` [Compound 21, N-(1-benzylpiperidin-4-yl)-2-methyl-2H-indazole-3-carboxamide] returned a melting point of 167 to 169 °C.
